Measured values: patent US20240190889A1, “NEW CYCLOPENTA-THIENO-DIAZEPINE DERIVATIVES AS GABA A GAMMA1 POSITIVE ALLOSTERIC MODULATORS” (Hoffmann-La Roche Inc., priority 2021, published 2024)
Like-named read-outs stand apart in the source and are kept apart here.

What was measured:
[1] = biological target: h-GABA-A α2β2γ1 receptor expressed in Xenopus laevis oocytes (Homo sapiens (Human), UniProt P47869+Q8N1C3); experiment: Two-electrode voltage clamp electrophysiology in Xenopus oocytes expressing GABAA receptors; format: cell-based; conditions: reference PAMs, GABA EC20
From the text: Functional Expression of GABAA Receptors:
Xenopus Oocytes Preparation
Xenopus laevis oocytes at maturation stages V-VI were used for the expression of cloned mRNA encoding GABAA receptor subunits. Oocytes ready for RNA micro-injection were bought from Ecocyte, Castrop-Rauxel, Germany and stored in modified Barth's medium (composition in mM: NaCl 88, KCl 1, NaHCO3 2.4, HEPES 10, MgSO4 0.82, CaNO3 0.33, CaCl2 0.33, pH=7.5) at 20 C. until the experiment.
Xenopus Oocytes Microinjection
Oocytes were plated in 96-well plates for microinjection using the Roboinject automated instrument (MultiChannelSystems, Reutlingen, Germany). Approximately 50 nL of an aqueous solution containing the RNA transcripts for the subunits of the desired GABAA receptor subtype was injected into each oocyte. […] Oocytes were kept in modified Barth's medium (composition in mM: NaCl 88, KCl 1, NaHCO3 […], HEPES 10, MgSO4 0.82, CaNO3 0.33, CaCl2 0.33, pH=7.5) at 20° C. until the experiment.
Electrophysiological experiments were performed using the Roboocyte instrument (MultiChannelSystems, Reutlingen, Germany) on days 3 to 5 after the micro-injection of mRNA. During the experiment the oocytes were constantly superfused by a solution containing (in mM) NaCl 90, KCl 1, HEPES 5, MgCl: 1, CaCl, 1 (pH 7.4). Oocytes were impaled by two glass microelectrodes (resistance: 0.5-0.8 MS2) which were filled with a solution containing KCl 1M +K-acetate 1.5 M and voltage-clamped to −80 mV. The recordings were performed at room temperature using the Roboocyte two-electrode voltage clamp system (Multichannelsystem). After an initial equilibration period of 1.5 min GABA was added for 1.5 min at a concentration evoking approximately 20% of a maximal current response (EC20). After another rest interval of 2.5 min GABA was again added evoking a response of similar amplitude and shape. […] Current traces were recorded at a digitization rate of 10 Hz during and shortly before and after the GABA application.
Each compound and concentration was tested on at least 3 oocytes. Different oocytes were used for different compound concentrations.
For the analysis, the digitized current traces of the first and second GABA response were superimposed and, if necessary, rescaled to equal maximal amplitudes. The ratio between the two responses during the time interval of test compound application was calculated point by point. The extremum of the resulting “ratio trace” was taken as the efficacy (“Fold increase”) of the compound expressed as “% modulation of GABA EC” (100* (Fold increase-1)).

[2] = biological target: human GABAA α1β3γ2 receptor (Homo sapiens (Human), UniProt P14867+P18507); experiment: Radioligand binding assay, competition for [3H]Flumazenil, γ2-containing GABAA subtypes; conditions: for LogSel: Log[Ki α1β3γ2 (nM)/Ki α2β2γ1 (nM)]; for γ2/γ1 Selectivity Ratio: Ki α1β3γ2 (nM)/Ki α2β2γ1 (nM)
Description: Membrane Preparation and Binding Assay for γ2-containing GABAA Subtypes
The affinity of compounds at GABAA γ2 subunit-containing receptors was measured by competition for [^3H]Flumazenil (81.1 Ci/mmol; Roche) binding to HEK293F cells expressing human (transiently transfected) receptors of composition α1β3γ2.
Harvested pellets from HEK293F cells expressing the different GABAA γ2 receptor subtypes were resuspended in Mannitol Buffer pH 7,2-7,4 and processed as described above for the cells expressing the GABAA γ1 subunit-containing receptors.
Assays were incubated to equilibrium for 1 hour at 4° C, and harvested onto GF/C uni-filters (Packard) by filtration using a Packard harvester and washing with ice-cold wash buffer (50 mM Tris; pH 7.5). After anhydrousing, filter-retained radioactivity was detected by liquid scintillation counting. Ki values were calculated using Excel-Fit (Microsoft) and are the means of two determinations.

[3] = biological target: human GABAA α5β2γ1 receptor (Homo sapiens (Human), UniProt P31644+Q8N1C3); experiment: Radioligand binding assay, competition for [3H]RO7239181, γ1-containing GABAA subtypes; conditions: membranes from HEK293F cells, mean of two determinations
Description: (§1) Membrane Preparation and Binding Assay for γ1-containing GABAA Subtypes
The affinity of compounds at GABAA γ1 subunit-containing receptors was measured by competition for [^3H]RO7239181 (67.3 Ci/mmol: Roche) binding to membranes from HEK293F cells (ThermoFisher R79007) expressing human (transiently transfected) receptors of composition α5β2γ1, α2β2γ1, α1β2γ1. For better protein expression of the α2 subunit-containing receptors, the 28 amino acid long signal peptide (Metl to Ala28) of the human GABAA α2 subunit was substituted by the 31 amino acid long signal peptide (Met1 to Ser31) of human GABAA α5 subunit.
(§2) Harvested pellets from HEK293F cells expressing the different GABAA receptor subtypes were resuspended in Mannitol Buffer pH 7.2-7.4 (Mannitol 0.29 M, Tricthylamine 10 mM. Acetic acid 10 mM. EDTA 1 mM plus protease inhibitors (20 tablets Complete. Roche Diagnostics Cat. No. 05 056 489 001 per liter)), washed two times and then resuspended at 1:10 to 1:15 dilution in the same buffer. Cell disruption was performed by stirring the suspension in a Parr vessel #4637 at 435 psi for 15 minutes, and then the suspensions were centrifuged at 1000×g for 15 minutes at 4° C. (Beckman Avanti J-HC: rotor JS-4.2). The supernatant (S1) was transferred in a 21 Schott flask and the pellet (P1) was resuspended with Mannitol Buffer up to 175 ml. The resuspended pellet was transferred into a 250 ml Corning centrifugal beaker and centrifuged at 1500 ×g for 10 minutes at 4° C. (Beckman Avanti J-HC: rotor JS-4.2). The supernatant (S1) was then transferred in the 21 Schott flask and the pellet was discarded. The supernatants (S1) were centrifuged in 500ml Beckman polypropylene centrifugal beaker at 15 000×g for 30 minutes at 4° C. (Beckman Avanti J-20 XP; rotor JLA-10.500). The pellet (P2) was resuspended with Mannitol Buffer 1:1 and frozen at −80° C. The supernatant (S2) was centrifuged in 100 ml Beckman polypropylene centrifugal tubes at 48000×g for 50 minutes at 4 °C (Beckman Avanti J-20 XP: rotor JA-18). The supernatant (S3) was discarded and the pellet (P3) was resuspended with 1:1 Mannitol Buffer. The P2 and P3 protein concentration was determined with the BIORAD Standard assay method with bovine serum albumin as standard and measured on the NANO-Drop 1000. The membrane suspension was aliquots (500μl per tube) and stored at −80° C. until required.
(§3) Membrane homogenates were resuspended and polytronised (Polytron PT1200E Kinematica AG) in Potassium Phosphate 10 mM, KCl 100 mM binding buffer at pH 7.4 to a final assay concentration determined with a previous experiment.
(§4) Radioligand binding assays were carried out in a volume of 200 μL (96-well plates) which contained 100 μL of cell membranes. [^3H]RO7239181 at a concentration of 1.5 nM (α5β2γ1) or 20-30 nM (α1β2γ1, α2β2γ1) and the test compound in the range of [0.3-10000]33 10^−9 M. Nonspecific binding was defined by 10×10^6 (α5β2γ1) and 30×10^6 M RO7239181 and typically represented less than 5% (α5β2γ1) and less than 20% (α1β2γ1, α2β2γ1) of the total binding. Assays were incubated to equilibrium for 1 hour at 4° C. and then, membranes were filtered onto unifilter (96-well white microplate with bonded GF/C filters preincubated 20-50 minutes in 0.3% Polyethylenimine) with a Filtermate 196 harvester (Packard BioScience) and washed 4 times with cold Potassium Phosphate 10 mM pH 7.4. KCl 100 mM binding buffer. After anhydrousing, filter-retained radioactivity was detected by liquid scintillation counting. Ki values were calculated using Excel-Fit (Microsoft) and are the means of two determinations.
Representative test results, obtained by the above described assay measuring binding affinity to HEK293 cells expressing human (h) receptors, are shown in the Table 1.

[4] = biological target: human GABAA α2β2γ1 receptor (Homo sapiens (Human), UniProt P47869+Q8N1C3); experiment: as above
Description: as §1
(§5) The affinity of compounds at GABAA γ1 subunit-containing receptors was measured by competition for [^3H]RO7239181 (67.3 Ci/mmol: Roche) binding to membranes from HEK293F cells (ThermoFisher R79007) expressing human (transiently transfected) receptors of composition α5β2γ1, α2β2γ1, α1β2γ1.
as §2, §3
as §4, with “[^3H]RO7239181 at a concentration of 1.5 nM (α5β2γ1) or 20-30 nM (α1β2γ1, α2β2γ1) and the test compound in the range of [0.3-10000]33 10^−9 M. Nonspecific binding was defined by 10×10^6 (α5β2γ1) and 30×10^6 M RO7239181 and typically represented less than 5% (α5β2γ1) and less than 20% (α1β2γ1, α2β2γ1) of the total binding.” left out

[5] = biological target: human GABAA α1β2γ1 receptor (Homo sapiens (Human), UniProt P14867+Q8N1C3); experiment: as above
Description: as §1, §5, §2, §3
as §4, with “[^3H]RO7239181 at a concentration of 1.5 nM (α5β2γ1) or 20-30 nM (α1β2γ1, α2β2γ1) and the test compound in the range of [0.3-10000]33 10^−9 M. Nonspecific binding was defined by 10×10^6 (α5β2γ1) and 30×10^6 M RO7239181 and typically represented less than 5% (α5β2γ1) and less than 20% (α1β2γ1, α2β2γ1) of the total binding.” left out

In the case of `Cc1nnc2n1-c1ccc(Cl)cc1C(c1ccccc1Cl)=NC2` [Triazolam, reference compound], the “potentiation of the GABA-induced current in α2β2γ1 GABAA receptor subtype expressing oocytes” value (“potentiation of the GABA-induced current” below) [1] is reported as about 60% and the LogSel [2] is reported as −1.5.
`Cc1ncc2n1-c1ccc(Cl)cc1C(c1ccccc1F)=NC2` [Midazolam, reference compound] was tested, and the “potentiation of the GABA-induced current” value [1] was about 60%, the “γ2/γ1 Selectivity Ratio” value [2] was 0.0068 and the LogSel [2] was −2.2.
Molecule `C[C@@H]1N=C(c2c(F)cccc2F)c2c(sc3c2C[C@H](C(F)F)C3)-n2c(CO)cnc21` [Example 22, [(7S,13S)-13-(difluoromethyl)-9-(2,6-difluorophenyl)-7-methyl-16-thia-2,5,8-triazatetracyclo [8.6.0.02,6.011,15]hexadeca-1(10),3,5,8,11(15)-pentaen-3-yl]methanol] has a Ki [3] of 44.3 nM, a Ki [2] of 2510 nM and a LogSel [2] of 1.75. It also gave a Ki [4] of 10.2 nM and a Ki ([4]; read-out: Ki h-GABAA α2β2γ1, membranes from HEK293F cells, [3H]RO7239181 20-30 nM, mean of two determinations) of 10.2 nM.
In the case of `CN1C(=O)CN=C(c2ccccc2F)c2cc([N+](=O)[O-])ccc21` [Flunitrazepam, reference compound], the “potentiation of the GABA-induced current” value [1] is reported as about 60%.
With `Cc1nnc2n1-c1sc3c(c1C(c1c(F)cccc1F)=N[C@H]2C)CCC3` [RE-C, (7S)-9-(2,6-difluorophenyl)-3,7-dimethyl-16-thia-2,4,5,8-tetrazatetracyclo [8.6.0.02,6.011,15]hexadeca-1(10),3,5,8,11(15)-pentaene, reference compound] the Ki [2] was 17.2 nM, the “γ2/γ1 Selectivity Ratio” value [2] was 0.84 and the LogSel [2] was −0.07. It also gave a Ki [5] of 2.59 nM and a Ki [4] of 20.4 nM.
For `Cc1nnc2n1-c1ccc(Cl)cc1C(c1ccccc1)=NC2` [Alprazolam, reference compound], the “γ2/γ1 Selectivity Ratio” value [2] was 0.0050 and the LogSel [2] was −2.3.
In the case of `Cc1nnc2n1-c1sc3c(c1C(c1ccccc1Cl)=NC2)CCC3` [RE-A, reference compound], the Ki [2] is reported as 6.6 nM, the “γ2/γ1 Selectivity Ratio” value [2] is reported as 0.38 and the LogSel [2] is reported as −0.42. For the same molecule, the Ki [4] was 17.5 nM.
With `CCOC(=O)C1Cc2sc3c(c2C1)C(c1ccccc1Cl)=NCc1nnc(C)n1-3` (centres unmarked) [RE-B, reference compound] the Ki ([2]; HEK293F cell membranes, [3H]Flumazenil 1 nM, mean of two determinations, read-out: Ki h-GABAA α1β3γ2) was 1220 nM, the “γ2/γ1 Selectivity Ratio” value [2] was 1.66 and the LogSel [2] was 0.22. It also gave a Ki [4] of 734 nM.
